Reference: article PMC7249060, “The Antiproliferative Effects of Flavonoid MAO Inhibitors on Prostate Cancer Cells” (Molecules, 2020)

Legend:
[1] = biological target: T1, hMAO-B (Homo sapiens, UniProt P27338); assay: MAO-Glow inhibitory potency (IC50); format: biochemical; conditions: mean ± SEM, at least two experiments; LDS 4 μM
T1 construct: purchased Sigma-Aldrich Co. (St. Louis, MO, USA)
T1 sequence (P27338 1-520): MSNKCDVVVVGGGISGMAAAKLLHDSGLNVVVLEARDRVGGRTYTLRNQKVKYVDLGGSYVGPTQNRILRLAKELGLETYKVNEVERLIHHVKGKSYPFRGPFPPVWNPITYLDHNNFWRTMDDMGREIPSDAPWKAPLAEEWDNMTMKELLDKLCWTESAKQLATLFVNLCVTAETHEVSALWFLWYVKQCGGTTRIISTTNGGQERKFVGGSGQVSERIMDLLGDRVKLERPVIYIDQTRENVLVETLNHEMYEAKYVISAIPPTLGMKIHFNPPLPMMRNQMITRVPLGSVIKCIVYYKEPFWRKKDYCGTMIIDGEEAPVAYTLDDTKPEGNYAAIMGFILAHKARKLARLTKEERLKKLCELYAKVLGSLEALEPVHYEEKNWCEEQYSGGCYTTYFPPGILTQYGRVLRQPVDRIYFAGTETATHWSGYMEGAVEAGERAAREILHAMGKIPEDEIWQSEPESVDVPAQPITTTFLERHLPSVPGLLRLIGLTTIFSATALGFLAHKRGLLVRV
Protocol: The inhibitory effects of the synthesized KKRs of hMAO-A and B were tested by measuring the decrease in arbitrary light units (ALU) signal produced by the optimized isozymes using the MAO-Glow™ Assay at 37 °C. In this assay, DMSO stock for each KKR compound was diluted with a reaction buffer of pH 7.4 to make a 4X working solution for a maximum final concentration of 100 μM and ≤1% DMSO. The experiments were run in the absence and presence of 4X the miscellaneous standards of MAO-BIs (DEP, PARG, and SAF) and MAO-AIs (PIRL and CLORG), with similar concentrations. In white opaque 96-well microplates, 12.5 μL of each compound was plated at RT and was followed by 25 μL of 2X cold hMAO-A or hMAO-B, for a final concentration of 0.44 U/mL. A related buffer substituted each isozyme to make the blank wells and substituted each compound to make the negative control wells. Following this, we added 12.5 μL of 4X LDS to make a final substrate concentration of 40- and 4-μM for hMAO-A and hMAO-B, respectively. All screen plates were incubated at 37 °C for 60 min. The plates of 50 μL/well were then taken out from the incubator, and their reactions were stopped by an equal volume of 50 μL of reporter luciferin detection reagent (RLDR). After 30 min, the luminescence signals for all plates were read on a Synergy HTX Multi-reader from Bio-Tek (Winooski, VT, USA).
The experiments were performed in the presence and absence of the standard PILR. In white opaque 96-well plates, each KKR compound was serially diluted with a reaction buffer of pH 7.4 at the highest possible maximum final concentration, and the least used DMSO (<2%). In blank wells, the related reaction buffer substituted the isozyme. In negative control wells, the reaction buffer substituted each compound concentration. Then, the procedure was carried out as mentioned above (Section 4.2.2), and the reaction was detected on the Bio-Tek Synergy HTX Multi-Reader. The IC50 of each KKR on both isozymes was determined and subsequently the RSA and RSB was calculated.
Statistical analyses were performed using the GraphPad Prism program (version 6.07 for Windows) from the GraphPad Prism Software Incorporated (San Diego, CA, USA). All data points and parameters were expressed as the mean ± SEM. All parameters were calculated from non-linear and linear regressions with the best R^2 values, no less than 93%. The inhibitory concentration of 50% of isozyme (IC50) of each compound was obtained by the interpolation of a normalized variable slope logarithmic curve. The RSA values of the selected compounds were calculated from their IC50 average means following the equation RSA = hMAO − B IC50/Hmao − A IC50(1)

[2] = tested on: DU145 cells; assay: Antiproliferation screen assay, resazurin, 72 h; format: cell-based, human; conditions: 50 μM
Protocol: (§1) In this screen, we examined the growth inhibitory effects of all synthesized KKRs on the three human PCa cell lines LNCaP, DU145, and PC3. The antiproliferative clinical drug TAX of 0.25 μM was used as a positive control. Additionally, different standards of MAO-Is and FLUT were tested for their effect on the LNCaP cells. Briefly, the procedures and materials used were the same as for the viability assay except for the following—cultured cells were seeded at 10,000 cells/175-µL/well related experimental media, and the resazurin solution was added after 72 h of incubation with the compounds of 50 μM each.

[3] = tested on: LNCaP cells; assay: Antiproliferation screen assay, resazurin, 72 h; format: cell-based, human; conditions: 50 μM
Protocol: as §1

[4] = tested on: LNCaP cells; assay: Antiproliferation dose-response assay for 72 h; format: cell-based; conditions: Homo sapiens, mean ± SEM of two experiments, read-out: antiproliferative IC50
Protocol: For the top effective KKRs, along with TAX, their potency to reduce the affected PCa cell line growth in a dose-dependent manner was determined using the resazurin fluorescence assay. We followed the same protocols and materials used for the antiproliferation screen assays (Section 4.3.2), with the following modifications. The maximum final KKR concentration used was 40 μM. The concentration of 8X of each KKR working solution in 1% HEPES 7.4 was serially diluted in a 3:1 ratio, compound to buffer, respectively. Each data set was collected from ten data points of 3.7–40 μM range. The control had the KKR substituted with buffer. The related IC50 averages were analyzed for the compounds that affected the cell lines the most.

[5] = tested on: LNCaP cells; assay: cells; format: cell-based, human; conditions: for effect on LNCaP proliferation and cell morphology: 20 μM, five days, phase contrast; for viability at 20 µM: Homo sapiens, LNCaP, 120 h, read-out: percentage of treated group compared to the viable control
Protocol: The morphological alterations of the LNCaP cells were imaged, and their percentage proliferation rate was measured after five-days of incubation. The method of subculture and treatment were similar to our antiproliferation assay, with slight modifications. Briefly, the cells were seeded in transparent flat-bottom 96-well microplates with 10,000 cells/175 μL/well of […] experimental media. Following overnight incubation, 20 μM concentration level (~2 × IC50) for each of KKR11, 20, 7, 2A, 21, and the standard PIRL were added to the cells for a total volume of 200 μL/well and re-incubated for five-days. On the day of imaging, 20X phase-contrast images of lid-covered treated and control cells were captured using an inverted microscope. Resazurin was then added for viability detection, and the imaged cells in the wells were read after 4.5 h on the Bio-Tek Synergy HTX Multi-reader.

IC50 [1] [µM] | IC50 [4] [µM] | SMILES | antiproliferative effect in screen [2] | antiproliferative effect in screen [3] | effect on LNCaP proliferation and cell morphology [5] | viability at 20 µM [5] [%]
> 800 | > 40 | O=c1cc(-c2ccccc2)oc2cc(Cl)c(Cl)cc12 [KKR21, 6,7-dichloro-2-phenyl-4H-chromen-4-one] | no effects on any of the screened PCa cell models | no effects on any of the screened PCa cell models | neither significant effects on LNCaP proliferation nor apparent changes in cell morphology | 94
> 800 | 9.1 | O=c1c(O)c(-c2ccccc2)oc2c(Cl)cc(Cl)cc12 [KKR7, 6,8-dichloro-3-hydroxy-2-phenyl-4H-chromen-4-one] | top effective | – | dramatically and differently altered cell morphology with a highly significant loss of proliferation | 25
0.79 ± 0.06 | 9.2 | O=C(/C=C/c1ccccc1)c1cc(Cl)cc(Cl)c1O [KKR20, (E)-1-(3,5-dichloro-2-hydroxyphenyl)-3-phenylprop-2-en-1-one] | – | top five KKRs that kept standing out with antiproliferative effects | dramatically and differently altered cell morphology with a highly significant loss of proliferation | 26
1.12 ± 0.09 | 9.5 | COc1cc(O)c(C(=O)/C=C/c2ccc(Cl)c(Cl)c2)c(OC)c1 [KKR11, (E)-3-(3,4-dichlorophenyl)-1-(2-hydroxy-4,6-dimethoxyphenyl)prop-2-en-1-one] | top effective | top five KKRs that kept standing out with antiproliferative effects | dramatically and differently altered cell morphology with a highly significant loss of proliferation | 11
0.2 ± 0.02 | > 40 | COc1cc(OC)c2c(=O)c(O)c(/C=C/c3cc(OC)c(OC)c(OC)c3)oc2c1 [KKR2A, (E)-3-hydroxy-5,7-dimethoxy-2-(3,4,5-trimethoxystyryl)-4H-chromen-4-one] | no effects on any of the screened PCa cell models | no effects on any of the screened PCa cell models | neither significant effects on LNCaP proliferation nor apparent changes in cell morphology | 96
